Data reported in PubChem BioAssay (NCI).
Several values for one entry are separate records, joined by “and”; a condition that tells them apart may be missing. Equal entries are not always repeated.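 Where inhibition never reached the appropriate level, the endpoint shown equals the highest concentration tested. Otherwise, values were interpolated linearly from a five-concentration, 48-hour dose response in 96-well plates. At the GI50, growth is halved. TGI: concentration producing complete growth inhibition.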

How the values were obtained:
Test in all cases: inhibition of tumour cell growth, NCI panel, 48 h
A498 renal = system: A498 renal
COLO 205 colon = system: COLO 205 colon
HOP-92 NSCLC = system: HOP-92 NSCLC
HS 578T breast = system: HS 578T breast
MDA-MB-231 breast = system: MDA-MB-231 breast
NCI-H522 lung = system: NCI-H522 lung
RPMI-8226 leukemia = system: RPMI-8226 leukemia
SF-268 CNS = system: SF-268 CNS
SN12C renal = system: SN12C renal
SNB-19 CNS = system: SNB-19 CNS
UO-31 renal = system: UO-31 renal
CCRF-CEM leukemia = system: CCRF-CEM leukemia
SK-OV-3 ovarian = system: SK-OV-3 ovarian
UACC-62 melanoma = system: UACC-62 melanoma

Row | SMILES | TGI (A498 renal) | TGI (COLO 205 colon) | TGI (HOP-92 NSCLC) | TGI (HS 578T breast) | TGI (MDA-MB-231 breast) | TGI (NCI-H522 lung) | TGI (RPMI-8226 leukemia) | TGI (SF-268 CNS) | TGI (SN12C renal) | TGI (SNB-19 CNS) | TGI (UO-31 renal) | TGI (CCRF-CEM leukemia) | TGI (SK-OV-3 ovarian) | TGI (UACC-62 melanoma) | GI50 (CCRF-CEM leukemia) | GI50 (NCI-H522 lung) | GI50 (RPMI-8226 leukemia) | GI50 (SF-268 CNS) | GI50 (SN12C renal) | GI50 (UACC-62 melanoma)
1 | O=c1cnn(C/C=C/CP(=O)(O)O)c(=O)[nH]1 | > 100 µM | > 100 µM | > 100 µM | > 100 µM | > 100 µM | > 100 µM | > 100 µM | > 100 µM | > 100 µM | > 100 µM | > 100 µM |  |  |  |  |  |  |  |  | 
2 | COc1cccc(N2C(=O)CSC2c2c[nH]c3ccccc23)c1 (stereo unspecified) |  | > 100 µM | > 100 µM |  | > 100 µM | > 100 µM |  | > 100 µM | > 100 µM | > 100 µM | > 100 µM | > 100 µM | > 100 µM | > 100 µM |  |  |  |  |  | 
3 | CCOC(=O)c1csc(NC(=O)CN2CCCCC2)n1 | > 100 µM | > 100 µM | > 100 µM | > 100 µM | > 100 µM |  | > 100 µM | > 100 µM |  | > 100 µM | > 100 µM | > 100 µM | > 100 µM | > 100 µM |  |  |  |  |  | 
4 | COC(=O)C1C(O)C(C)C(O)C(C)/C=C\C=C(C)C(=O)Nc2c(C)c(OC(C)=O)c3c(c2O)C(=O)C(C)=C2OCOC(=C23)C(C)=CC(C)(O)C(O)C(C)C1O (stereo unspecified) | > 75 µM | 36.3 µM and 58.6 µM | > 100 µM | > 100 µM | > 100 µM | > 100 µM | 41.3 µM and > 100 µM | > 100 µM | > 100 µM | > 100 µM | > 100 µM | 50.9 µM and > 100 µM | > 100 µM | 37.7 µM and > 100 µM | 18.9 µM and 54.7 µM | 23.4 µM and 74.2 µM | 15.9 µM and 64.3 µM | 39.4 µM | 49 µM and > 100 µM | 17 µM and > 100 µM
5 | CC(C)OP(=O)(OC(C)C)c1nn(-c2ccc([N+](=O)[O-])cc2)c(=N)s1 | > 100 µM | > 100 µM | > 100 µM |  |  | > 100 µM | > 100 µM | > 100 µM | > 100 µM | > 100 µM | > 100 µM | > 100 µM | > 100 µM | > 100 µM |  |  |  |  |  | 
